Our source for the RP-LC retention time values is the METLIN SMRT retention time set (Domingo-Almenara et al. 2019).

The data set in a line: gradient 5% acetonitrile 3 min, to 50% in 2 min, to 85% in 15 min, held 3 min, 100 µL/min. Conditions: column: Zorbax Extend-C18 2.1 x 50 mm; eluents: water / acetonitrile, 0.1% formic acid. The gist of the method:
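Retention times come from adduct peaks that were picked computationally and then checked by hand. The standards, pure and pooled in mixtures of ~100 molecules, were run on a Zorbax Extend-C18 column (2.1 × 50 mm, 1.8 μm) at 100 μL/min with water and acetonitrile, each with 0.1% formic acid. Detection was by quadrupole time-of-flight mass spectrometry in positive and negative ionization mode, with a dead volume of 40 μL and a dwell volume of 900 μL.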
For the molecule `Cc1ccc2c(Nc3ccc(C)c(C)c3)c(C(=O)N3CCSCC3)cnc2n1`, the RP-LC retention time turned out to be 644 s. Molecule `O=C(NCc1ccc(F)cc1Cl)C1CCCN(c2ncnc3nn(-c4ccc(F)cc4)cc23)C1` (stereo unspecified) showed an RP-LC retention time of 723 s. Regarding `CCCn1cnc2cc(CNC(=O)Cc3cccc(Cl)c3)ccc21`, the RP-LC retention time was 670 s. In the case of `COCCOCc1nc(C2CCCN2C(=O)c2sccc2C)no1` (stereo unspecified) it was 716 s. For the molecule `COc1ccccc1-c1nnc(-c2cc(S(=O)(=O)N(C)C)ccc2Cl)o1`, the RP-LC retention time amounted to 904 s. `CC(C)CNC(=O)c1cn(-c2ccc(-c3nc(C(C)(C)C)no3)cn2)cn1`: the RP-LC retention time turned out to be 1020 s. For `CCn1nc2ccc(S(=O)(=O)N3CCCCC3)cn2c1=O`, the RP-LC retention time was 744 s. Then `Cc1ccc(-c2c(C(=O)NCC3CCCO3)nc3ccccn23)cc1` (stereo unspecified), with 730 s.

The molecule `CC(=O)Nc1ccc2c(c1)CN(C(=O)c1cccc(Cl)c1)C(C(=O)N1CCCC1)C2` (stereo unspecified) showed an RP-LC retention time of 690 s. In the case of `O=C(COc1ccccc1)N1CCCC(OCc2nc(C3CC3)no2)C1` (stereo unspecified), the RP-LC retention time amounted to 610 s.

As to `O=C(CNC(=O)c1c[nH]c2ccccc12)NCCC1=CCCCC1`, the RP-LC retention time amounted to 710 s. For the molecule `Cc1nc(-c2csc(S(=O)(=O)N3CCC(C(=O)Nc4cccc(F)c4)CC3)c2)no1`, the RP-LC retention time was found to be 925 s. `CN(C)c1ccc2c(c1)OC(N)=C(C#N)C2c1cccc(C(F)(F)F)c1` (stereo unspecified) yielded an RP-LC retention time of 1020 s. As for `CN(C)c1cc2c(cc1NC(=O)C1CC1)n(C)c(=O)c(=O)n2C`, the RP-LC retention time is 608 s. For the molecule `CS(=O)(=O)N1CCCc2cc(C(=O)Nc3ccc(Br)cc3)ccc21`, the RP-LC retention time came out at 951 s.

For the molecule `COc1ccccc1C(=O)N1CCC2(CC1)OCCN2S(=O)(=O)c1ccc(F)c(C)c1`, the RP-LC retention time was 835 s. For `O=C(Nc1cc(-c2cccs2)no1)C1CC1`, the RP-LC retention time came to 803 s. Consider `Cn1cc(C(=O)N2CCOCC2)c2cccnc21`, for which the RP-LC retention time was found to be 601 s. Regarding `Cc1cc(=O)n(CC(=O)Nc2ccc(Cl)cc2)c(N2CCCCC2)n1`, the RP-LC retention time worked out at 708 s. Molecule `Cc1nnc2ccc(S(=O)(=O)Nc3ccc4c(c3)OCO4)cn12` displayed an RP-LC retention time of 669 s. In the case of `Cc1cc(N2CCN(C(=O)Cc3ccc(F)cc3)CC2)nc2nncn12` it was 596 s; in that of `COC(=O)c1ccc(NC(=O)CN2CCC(c3nc(-c4cccs4)no3)CC2)cc1`, 621 s.

With `CC(C)NS(=O)(=O)c1ccc(NC(=O)Cn2cncn2)cc1`, the RP-LC retention time is 602 s. `CC(C)CCNC(=O)CCC(=O)N1CCCn2nc(-c3cn(C)c4ccccc34)cc21` registered an RP-LC retention time of 778 s. `COC(=O)c1c(C)[nH]c(C(=O)N2CCC(CC(=O)N3CCCCC3)CC2)c1C` gave an RP-LC retention time of 716 s.

`Cc1nc(-c2ccc3c(c2)CCN3C(=O)c2n[nH]c3ccccc23)cs1` registered an RP-LC retention time of 959 s. In turn, `CC(N)Cc1c[nH]c2ccc(OCc3cccs3)cc12` (stereo unspecified) came in with an RP-LC retention time of 734 s. In turn, `Cc1cc2nc(C(=O)OC(C)C)c(N3CCN(c4ccccn4)CC3)nc2cc1C` showed an RP-LC retention time of 791 s. Regarding `CC1=NS(=O)(=O)N(C)C=C1C(=O)OCc1nc(-c2ccc(F)cc2)no1`, the RP-LC retention time stood at 952 s. On to `CC1(C)CC(=O)c2cn(-c3ccc(F)cc3)c(=O)c(C(=O)N3CCCC3)c2C1`, for which the RP-LC retention time is 729 s. In the case of `COc1ccc(C2CC(=O)c3cnc(Nc4nc(C)c5cc(C)c(C)cc5n4)nc3C2)cc1` (stereo unspecified) it was 775 s. `O=C(Nc1cnc(N2CCCCC2)nc1)c1cc(F)cc(F)c1` displayed an RP-LC retention time of 984 s.

The molecule `O=C1NC(c2ccccc2)(C(F)(F)F)SC2=NCCCN12` (stereo unspecified) yielded an RP-LC retention time of 584 s. Then `Cc1ccc(NC(=O)Cn2ncc3c(c2=O)N(CC2CC2)C(=O)CS3)c(Cl)c1`, with 846 s. Molecule `O=C(C1=NN(Cc2cccc(Cl)c2)c2ccccc2S1(=O)=O)N1CCOCC1` gave an RP-LC retention time of 856 s. In the case of `COc1ccc(-c2ncc3c(n2)CCN(S(=O)(=O)c2ccc(Cl)cc2)C3)cc1` it was 1100 s; in that of `O=S(=O)(c1ccc(F)cc1)N1CCC2(CC1)NCCN=C2NCc1ccccc1F`, 692 s. As for `O=C(Cn1ccn2nc(-c3ccccc3)c(CO)c2c1=O)N1CCCc2ccccc21`, the RP-LC retention time stood at 861 s. In turn, `O=C(c1ccccc1Cl)N1CCN(C(=O)c2nnn3c2COC(c2ccccc2)C3)CC1` (stereo unspecified) returned an RP-LC retention time of 858 s. As to `O=C(Nc1ccccc1F)N1[C@H]2CC[C@@H]1c1cncnc1C2`, the RP-LC retention time was 646 s. `CCOc1nc2ccccc2nc1N1CCCC(C(=O)N2CCOCC2)C1` (stereo unspecified) yielded an RP-LC retention time of 983 s. For the molecule `Cn1ncc2c(NCc3ccccc3)nc(NCc3ccccc3)nc21`, the RP-LC retention time turned out to be 652 s. Molecule `Cc1ccc(C(=O)N(C)Cc2cccnc2Oc2ccccc2)cn1` returned an RP-LC retention time of 861 s.

The molecule `COC(=O)c1ccc2c(=O)n(-c3cccc(C)c3)c(N3CCN(c4ccccn4)CC3)nc2c1` gave an RP-LC retention time of 726 s. Molecule `COc1ccc(Cl)cc1S(=O)(=O)N1CCCC(C(=O)Nc2ccccc2)C1` (stereo unspecified) had an RP-LC retention time of 967 s. On to `Cn1nc(CNC(=O)c2ccsc2)c2ccccc21`, for which the RP-LC retention time worked out at 735 s. For the molecule `COCCN1C(=O)CCc2cc(NS(=O)(=O)c3ccc(C)cc3C)ccc21`, the RP-LC retention time amounted to 816 s.

Take `CCc1nc2cc(N3CCC(C(=O)Nc4cc(C)ccc4OC)CC3)cnc2nc1CC`: the RP-LC retention time came to 992 s. As for `Cc1sc(NC(=O)C(C)C)nc1-c1ccc2c(c1)NC(=O)C(C)O2` (stereo unspecified), the RP-LC retention time is 831 s.

On to `Cc1ccc(S(=O)(=O)N2CCCC(C(=O)Nc3nnc(Cc4cccs4)o3)C2)cc1` (stereo unspecified), for which the RP-LC retention time is 810 s. `Cc1nc2cc(-c3ccc(Cl)cc3)nn2c(C)c1CCC(=O)N1CCN(c2ccccn2)CC1` displayed an RP-LC retention time of 727 s.

As for `Cc1cccc(Cn2c(=O)n(C)c(=O)c3snc(-c4ccccn4)c32)c1`, the RP-LC retention time was found to be 925 s. The molecule `c1cc(Cc2nc(-c3ccc4c(c3)ncn4CCN3CCCCC3)no2)cs1` showed an RP-LC retention time of 632 s. Then `CCn1cc(-c2nc(CC(=O)Nc3ccccc3OC)cs2)c2cccnc21`, with 984 s. Regarding `COC(=O)C(C)NC(=O)NCc1cccn1Cc1cccc(F)c1` (stereo unspecified), the RP-LC retention time worked out at 792 s. Consider `CCN(C(=O)Cn1nc(C(=O)N2CCCCC2)c2ccccc21)c1ccccc1`, for which the RP-LC retention time is 944 s. Then `CCCNC(=O)C1CCCN(c2ccc(SCC(=O)Nc3cccc(CC)c3)nn2)C1` (stereo unspecified), with 733 s; and `CCC(c1cccs1)N1C(=O)[C@H]2CN(S(=O)(=O)c3ccccc3F)C[C@H]2C1=O` (stereo partly specified), with 972 s; and `Brc1ccc(OCc2nnc3sc(-c4ccccc4)nn23)cc1`, with 1050 s. Then `c1ccc2c(c1)-c1cccc3cncc-2c13`, with 897 s; and `Cc1cc(C)nc(N2CCN(c3ccc(F)cc3)CC2)n1`, with 876 s; and `CCc1nc2onc(C)c2c(=O)n1CC(=O)NCC(C)c1ccccc1` (stereo unspecified), with 832 s.

On to `Cc1nc(N2CCN(c3ncccn3)CC2)nc2c1C(=O)CC(/C=C/c1ccccc1)C2` (stereo unspecified), for which the RP-LC retention time worked out at 1290 s.

The molecule `COc1ccc(-c2cc3n(n2)C(NC2CC2)CNC3=O)cc1` (stereo unspecified) had an RP-LC retention time of 683 s. `CC(C)n1c(=O)c(Nc2cccc(C(F)(F)F)c2)nc2ccncc21` registered an RP-LC retention time of 772 s. Then `COc1ccc(-c2nn3c(N4CCN(c5ccccn5)CC4)cc(C)nc3c2C)cc1OC`, with 606 s; and `Cc1ccc(-c2noc(Cn3cnc4c(cnn4-c4ccccc4)c3=O)n2)cc1`, with 1090 s; and `CS(=O)(=O)Nc1ccc(C2(C(=O)NCc3ccc(F)cc3Cl)CCCCC2)cc1`, with 979 s. In the case of `Cc1noc(C)c1C1CCCN1C(=O)NC(C)C` (stereo unspecified), the RP-LC retention time is 656 s. Turning to `CC(=O)Nc1nc(-c2ccc(S(=O)(=O)Nc3ccc(C)cc3)cc2)cs1`, the RP-LC retention time was found to be 854 s. In the case of `CCN1C(=O)c2ccccc2Sc2cc(-c3noc(CNC(=O)c4ccco4)n3)ccc21` it was 865 s; in that of `Cc1ccc2c(c1)Oc1ccccc1N=C2`, 993 s; in that of `Cc1ccc(NC(=O)C(=O)NCC2CCN(S(=O)(=O)C3CC3)CC2)cc1F`, 828 s. Then `CN(C)C(=O)c1ccc2c(c1)nnn2CCNC(=O)Nc1ccccc1Br`, with 675 s; and `Cc1ncsc1C1N(C2CCN(C(=O)C3CC3)CC2)C(=O)C12CCCC2` (stereo unspecified), with 696 s.

For `CC(C)CC(=O)N1CCc2[nH]nc(C(=O)NCCCc3ccccc3)c2C1`, the RP-LC retention time stood at 795 s. `CCCN(C)C(=O)C1CCN(c2cnn(Cc3ccccc3)c(=O)c2)CC1` had an RP-LC retention time of 728 s. In the case of `CCCc1nc(-c2c(C)cc(C)nc2NC(=O)c2ccc(F)cc2F)no1` it was 895 s; in that of `COc1ccc(-c2cn3cccnc3n2)cc1NS(=O)(=O)c1ccc(C)cc1`, 690 s. `CCOc1ccc(NC(=O)c2cc(C)n3nccc3n2)cc1` registered an RP-LC retention time of 917 s.

In the case of `O=C(CCNc1cnc2cnccn12)Nc1ccc(N2CCOCC2)cc1`, the RP-LC retention time was found to be 534 s.
